Test results taken from PubChem BioAssay (NCI).
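1) Cells in 96-well plates. 2) Compound, 48 h, 5 concentrations. 3) Linear interpolation between surrounding doses. 4) Unreached endpoint = highest concentration. GI50 marks 50% less growth. At the TGI there is no net growth.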

Tests used:
Test in all cases: growth of human tumour cells (NCI), 48 h
786-0 renal = system: 786-0 renal
A498 renal = system: A498 renal
A549 NSCLC = system: A549 NSCLC
ACHN renal = system: ACHN renal
BT-549 breast = system: BT-549 breast
CAKI-1 renal = system: CAKI-1 renal
COLO 205 colon = system: COLO 205 colon
DU-145 prostate = system: DU-145 prostate
EKVX NSCLC = system: EKVX NSCLC
HCC-2998 colon = system: HCC-2998 colon
HCT-116 colon = system: HCT-116 colon
HCT-15 colon = system: HCT-15 colon
HOP-62 NSCLC = system: HOP-62 NSCLC
HS 578T breast = system: HS 578T breast
HT29 colon = system: HT29 colon
IGROV1 ovarian = system: IGROV1 ovarian
K-562 leukemia = system: K-562 leukemia
KM12 colon = system: KM12 colon
LOX IMVI melanoma = system: LOX IMVI melanoma
M14 melanoma = system: M14 melanoma
MALME-3M melanoma = system: MALME-3M melanoma
MCF7 breast = system: MCF7 breast
MDA-MB-231 breast = system: MDA-MB-231 breast
MDA-MB-435 = system: MDA-MB-435
MOLT-4 leukemia = system: MOLT-4 leukemia
NCI-H226 lung = system: NCI-H226 lung
NCI-H23 lung = system: NCI-H23 lung
NCI-H460 lung = system: NCI-H460 lung
NCI-H522 lung = system: NCI-H522 lung
NCI/ADR-RES ovarian = system: NCI/ADR-RES ovarian
OVCAR-3 ovarian = system: OVCAR-3 ovarian
OVCAR-4 ovarian = system: OVCAR-4 ovarian
OVCAR-5 ovarian = system: OVCAR-5 ovarian
OVCAR-8 ovarian = system: OVCAR-8 ovarian
PC-3 prostate = system: PC-3 prostate
RPMI-8226 leukemia = system: RPMI-8226 leukemia
RXF 393 renal = system: RXF 393 renal
SF-268 CNS = system: SF-268 CNS
SF-295 CNS = system: SF-295 CNS
SF-539 CNS = system: SF-539 CNS
SK-MEL-2 melanoma = system: SK-MEL-2 melanoma
SK-MEL-28 melanoma = system: SK-MEL-28 melanoma
SK-MEL-5 melanoma = system: SK-MEL-5 melanoma
SK-OV-3 ovarian = system: SK-OV-3 ovarian
SN12C renal = system: SN12C renal
SNB-19 CNS = system: SNB-19 CNS
SR leukemia = system: SR leukemia
SW-620 colon = system: SW-620 colon
T-47D breast = system: T-47D breast
TK-10 renal = system: TK-10 renal
U251 CNS = system: U251 CNS
UACC-257 melanoma = system: UACC-257 melanoma
UACC-62 melanoma = system: UACC-62 melanoma
UO-31 renal = system: UO-31 renal
HL-60(TB) leukemia = system: HL-60(TB) leukemia
SNB-75 CNS = system: SNB-75 CNS

Cn1ccc2c3c(Oc4ccc(NC(N)=O)cc4)ccnc3ccc21
GI50 (786-0 renal): > 100 µM
TGI (786-0 renal): > 100 µM
GI50 (A498 renal): > 100 µM
TGI (A498 renal): > 100 µM
GI50 (A549 NSCLC): > 100 µM
TGI (A549 NSCLC): > 100 µM
GI50 (ACHN renal): > 100 µM
TGI (ACHN renal): > 100 µM
GI50 (BT-549 breast): > 100 µM
TGI (BT-549 breast): > 100 µM
GI50 (CAKI-1 renal): > 100 µM
TGI (CAKI-1 renal): > 100 µM
GI50 (COLO 205 colon): > 100 µM
TGI (COLO 205 colon): > 100 µM
GI50 (DU-145 prostate): > 100 µM
TGI (DU-145 prostate): > 100 µM
GI50 (EKVX NSCLC): > 100 µM
TGI (EKVX NSCLC): > 100 µM
GI50 (HCC-2998 colon): > 100 µM
TGI (HCC-2998 colon): > 100 µM
GI50 (HCT-116 colon): > 100 µM
TGI (HCT-116 colon): > 100 µM
GI50 (HCT-15 colon): > 100 µM
TGI (HCT-15 colon): > 100 µM
GI50 (HOP-62 NSCLC): > 100 µM
TGI (HOP-62 NSCLC): > 100 µM
GI50 (HS 578T breast): 40.1 µM
TGI (HS 578T breast): > 100 µM
GI50 (HT29 colon): > 100 µM
TGI (HT29 colon): > 100 µM
GI50 (IGROV1 ovarian): > 100 µM
TGI (IGROV1 ovarian): > 100 µM
GI50 (K-562 leukemia): > 100 µM
TGI (K-562 leukemia): > 100 µM
GI50 (KM12 colon): > 100 µM
TGI (KM12 colon): > 100 µM
GI50 (LOX IMVI melanoma): > 100 µM
TGI (LOX IMVI melanoma): > 100 µM
GI50 (M14 melanoma): > 100 µM
TGI (M14 melanoma): > 100 µM
GI50 (MALME-3M melanoma): > 100 µM
TGI (MALME-3M melanoma): > 100 µM
GI50 (MCF7 breast): > 100 µM
TGI (MCF7 breast): > 100 µM
GI50 (MDA-MB-231 breast): > 100 µM
TGI (MDA-MB-231 breast): > 100 µM
GI50 (MDA-MB-435): > 100 µM
TGI (MDA-MB-435): > 100 µM
GI50 (MOLT-4 leukemia): > 100 µM
TGI (MOLT-4 leukemia): > 100 µM
GI50 (NCI-H226 lung): > 100 µM
TGI (NCI-H226 lung): > 100 µM
GI50 (NCI-H23 lung): > 100 µM
TGI (NCI-H23 lung): > 100 µM
GI50 (NCI-H460 lung): > 100 µM
TGI (NCI-H460 lung): > 100 µM
GI50 (NCI-H522 lung): > 100 µM
TGI (NCI-H522 lung): > 100 µM
GI50 (NCI/ADR-RES ovarian): > 100 µM
TGI (NCI/ADR-RES ovarian): > 100 µM
GI50 (OVCAR-3 ovarian): > 100 µM
TGI (OVCAR-3 ovarian): > 100 µM
GI50 (OVCAR-4 ovarian): > 100 µM
TGI (OVCAR-4 ovarian): > 100 µM
GI50 (OVCAR-5 ovarian): > 100 µM
TGI (OVCAR-5 ovarian): > 100 µM
GI50 (OVCAR-8 ovarian): > 100 µM
TGI (OVCAR-8 ovarian): > 100 µM
GI50 (PC-3 prostate): > 100 µM
TGI (PC-3 prostate): > 100 µM
GI50 (RPMI-8226 leukemia): > 100 µM
TGI (RPMI-8226 leukemia): > 100 µM
GI50 (RXF 393 renal): > 100 µM
TGI (RXF 393 renal): > 100 µM
GI50 (SF-268 CNS): > 100 µM
TGI (SF-268 CNS): > 100 µM
GI50 (SF-295 CNS): > 100 µM
TGI (SF-295 CNS): > 100 µM
GI50 (SF-539 CNS): > 100 µM
TGI (SF-539 CNS): > 100 µM
GI50 (SK-MEL-2 melanoma): > 100 µM
TGI (SK-MEL-2 melanoma): > 100 µM
GI50 (SK-MEL-28 melanoma): > 100 µM
TGI (SK-MEL-28 melanoma): > 100 µM
GI50 (SK-MEL-5 melanoma): 20.7 µM
TGI (SK-MEL-5 melanoma): > 100 µM
GI50 (SK-OV-3 ovarian): > 100 µM
TGI (SK-OV-3 ovarian): > 100 µM
GI50 (SN12C renal): > 100 µM
TGI (SN12C renal): > 100 µM
GI50 (SNB-19 CNS): > 100 µM
TGI (SNB-19 CNS): > 100 µM
GI50 (SR leukemia): > 100 µM
TGI (SR leukemia): > 100 µM
GI50 (SW-620 colon): > 100 µM
TGI (SW-620 colon): > 100 µM
GI50 (T-47D breast): > 100 µM
TGI (T-47D breast): > 100 µM
GI50 (TK-10 renal): > 100 µM
TGI (TK-10 renal): > 100 µM
GI50 (U251 CNS): > 100 µM
TGI (U251 CNS): > 100 µM
GI50 (UACC-257 melanoma): > 100 µM
TGI (UACC-257 melanoma): > 100 µM
GI50 (UACC-62 melanoma): > 100 µM
TGI (UACC-62 melanoma): > 100 µM
GI50 (UO-31 renal): > 100 µM
TGI (UO-31 renal): > 100 µM

COc1ccc(-n2c(C)nc3ccc(NC(=S)Nc4ccccc4)cc3c2=O)cc1
TGI (786-0 renal): > 100 µM
TGI (A498 renal): > 100 µM
TGI (ACHN renal): > 100 µM
TGI (BT-549 breast): > 100 µM
TGI (CAKI-1 renal): > 100 µM
TGI (COLO 205 colon): > 100 µM
TGI (DU-145 prostate): > 100 µM
TGI (EKVX NSCLC): > 100 µM
TGI (HCC-2998 colon): > 100 µM
TGI (HCT-116 colon): > 100 µM
TGI (HCT-15 colon): > 100 µM
TGI (HL-60(TB) leukemia): > 100 µM
TGI (HOP-62 NSCLC): > 100 µM
TGI (HS 578T breast): > 100 µM
TGI (HT29 colon): > 100 µM
TGI (IGROV1 ovarian): > 100 µM
TGI (K-562 leukemia): > 100 µM
TGI (KM12 colon): > 100 µM
TGI (LOX IMVI melanoma): > 100 µM
TGI (MALME-3M melanoma): > 100 µM
TGI (MCF7 breast): > 100 µM
TGI (MDA-MB-231 breast): > 100 µM
TGI (MDA-MB-435): > 100 µM
TGI (MOLT-4 leukemia): 99.8 µM
TGI (NCI-H226 lung): > 100 µM
TGI (NCI-H23 lung): > 100 µM
TGI (NCI-H460 lung): > 100 µM
TGI (NCI-H522 lung): > 100 µM
TGI (NCI/ADR-RES ovarian): > 100 µM
TGI (OVCAR-3 ovarian): > 100 µM
TGI (OVCAR-4 ovarian): > 100 µM
TGI (OVCAR-5 ovarian): > 100 µM
TGI (OVCAR-8 ovarian): > 100 µM
TGI (PC-3 prostate): > 100 µM
TGI (RPMI-8226 leukemia): > 100 µM
TGI (RXF 393 renal): > 100 µM
TGI (SF-268 CNS): > 100 µM
TGI (SF-295 CNS): > 100 µM
TGI (SK-MEL-2 melanoma): > 100 µM
TGI (SK-MEL-28 melanoma): > 100 µM
TGI (SK-MEL-5 melanoma): > 100 µM
TGI (SN12C renal): > 100 µM
TGI (SNB-19 CNS): > 100 µM
TGI (SNB-75 CNS): > 100 µM
TGI (SR leukemia): > 100 µM
TGI (SW-620 colon): > 100 µM
TGI (T-47D breast): > 100 µM
TGI (TK-10 renal): > 100 µM
TGI (U251 CNS): > 100 µM
TGI (UACC-257 melanoma): > 100 µM
TGI (UACC-62 melanoma): > 100 µM
TGI (UO-31 renal): > 100 µM
